Source: patent publication US7022484B2, “Methods for treating neuropathological states and neurogenic inflammatory states and methods for identifying compounds useful therein” (Board of Regents, The University of Texas System, priority 2000, dated 2006)
Entries after “also recorded” stand apart in the source; their conditions may differ.

Legend:
TNFα = TNFα release by ELISA from SW982 synovial cells treated with NMDA and ACPD; assay type: cell-based, human; conditions: 24 hours, NMDA (5 mM) and ACPD (5 mM), K252a (100 nM)
Experimental: The cultured cell lines used in these studies were the human neuroblastoma clonal line, SHSY5Y, and the human synovial sarcoma clonal line, SW982, both available through the American Tissue Type Culture Collection (item number CRL 2266 and HTB-93, respectively). Cells were grown in Dulbecco's Modification of Eagles Medium (DMEM) without L-glutamine, with 4.5 grams/Liter glucose, and with 10% bovine fetal serum in a tissue culture incubator at 37° C. in a gaseous mixture of O2/CO2. Cells were routinely split as necessary to maintain proper cell density. Cells were removed from plates by adding TRYPSIN/EDTA in Hank's Balanced Salt solution. After cell counts, approximately 10,000 cells were plated per well in a culture dish. For experiments, the cells were plated into 35 mm Petri dishes or 6- or 24-well plates as needed.
For detection of released Tumor Necrosis Factor alpha (TNFα) and some western blot experiments, cells were exposed to the two glutamate agonists NMDA (5 mM) and ACPD (5 mM), in the presence or absence of the tyrosine kinase inhibitors Genistein […] or K252a (100 nM). […]
The release of the inflammatory mediator and initiator of inflammatory cascades, TNFα was measured by ELISA using a commercially available kit (R&D Quantikine, Catalog Number DTA50) specific for human TNFα. […]

rat arthritis model = test: Paw withdrawal latency (PWL) to radiant heat in rat kaolin/carrageenan knee joint inflammation model; assay type: in vivo
Experimental: All studies followed the guidelines of the Institute Animal Care and Use Committee, in accordance with the guidelines of the National Institutes of Health. All animals were hosted in a room with a constant ambient temperature of 22° C. and 12 hour light/dark cycle with free access to food and water. Eighty-five Sprague-Dawley rats (250–300 grams) total were used in experiments conducted for biochemical, behavioral, and immunocytochemistry studies. […] On Day 2 baseline behavioral testing was followed by infusion of agents for 1.5 hours (pretreatment) prior to induction of knee joint inflammation under brief anesthesia. Behavioral testing was repeated 4 hours after induction of joint inflammation. Anesthetized animals were either transcardially perfused with aldehydes for immunohistochemical studies or fresh, frozen tissues collected for biochemical studies.
A microdialysis fiber was implanted into the spinal dorsal horn of anesthetized rats (sodium pentobarbital, 50 mg/kg) one day prior to the induction of arthritis according to the procedure of Skilling et al. (J. Neurochem., 51:127–132 (1988)), as described in Sluka et al. (Neurosci. Lett., 145:141–144 (1992)). Briefly, a small midline incision was made in the skin over the T12 vertebral level. The vertebrae were cleared of muscle and two 1 millimeter (mm) holes were drilled in the lateral aspect of both sides of the T12 vertebrae to expose the L4 spinal segment. A microdialysis fiber ([…], 45,000 MW cut-off, Hospal, AN69, Hospal Industrie, Meyzieu, France), was passed transversely across the deep dorsal horn and stabilized with dental cement. The microdialysis fiber was then passed through the holes in the vertebrae and transversely through the dorsal horn of the spinal cord. A 2 mm section of the microdialysis fiber lies in the dorsal horn at the level of L3–4 segment. The tubing was coated with epoxy except for a permeable portion passing through the spinal grey matter. The microdialysis fiber was connected to PE20 tubing (Becton Dickinson and Company, San Mateo, Calif.) which was tunneled under the skin to the nape of the neck. Alternatively as a systemic control for drug administration, the microdialysis fiber was implanted only in the subcutaneous tissue over the back muscle and tunneled to the neck. Artificial cerebrospinal fluid (aCSF) was made as described by Sorkin et al. (J. Neurosci. Methods, 23, 131–138 (1988)) and was infused (5 microliters/minute) for 1.5 hours and then the tube was heat-sealed for use on the following day.
Dose response curves were generated for Genistein with animals receiving Genistein spinally at concentration of 0.2 mM (n=3), 0.5 mM (n=3), 1 mM (n=9), and 2 mM (n=3). Animals received Lavendustin A or B spinally at concentrations of 0.1 mM (n=3), 0.5 mM (n=3), and 1 mM (n=5) as a positive and negative control for Genistein. […] Daidzein was tested at a dose of 1 mM (n=3). […] Eight additional animals received the vehicle, 50% DMSO in aCSF, as a control.
An acute inflammatory response restricted to the knee joint can be induced by the injection of 3% kaolin and 3% carrageenan (in sterile saline; 0.1 ml; pH 7.4) into the joint cavity while the animal is briefly anesthetized with sodium methohexital (Brevital, 60 mg/kg, i.p.). Kaolin and carrageenan were obtained from Fisher Scientific, St. Louis, Mo. The knee joint is flexed manually until the rat awakes (approximately 5–10 minutes). In this arthritis model in the awake rat, localized joint swelling, as well as limping and guarding of the limb, are well developed at 4 hours (Sluka et al., Pain, 59, 95–100 (1994)) when behavioral testing begins.
Fifty-five rats were used for behavioral studies. Four hours after induction of the arthritis, the joint is swollen and increased withdrawal responses to radiant heat and spontaneous guarding of the limb were noted. The increased responsiveness to noxious stimuli indicates the presence of secondary hyperalgesia. […]

O=c1c(-c2ccc(O)cc2)coc2cc(O)cc(O)c12 [Genistein, 5,7-Dihydroxy-3-(4-hydroxyphenyl)-4H-1-benzopyran-4-one; 4′,5,7-trihydroxy-isoflavone]
NMDA/ACPD-promoted release of TNFα (TNFα): completely abolished
effect on baseline PWL (rat arthritis model; after 1.5 hours infusion, before kaolin/carrageenan): did not affect baseline PWL
most effective dose in pre-treatment animals (rat arthritis model; concentration inside the microdialysis fiber, spinal administration): 1 mM
PWL decrease induced by knee joint inflammation (rat arthritis model; spinal microdialysis pre-treatment 1.5 hours, PWL to radiant heat 4 hours after kaolin/carrageenan): significantly (p<0.05 versus 4 hours vehicle group) attenuated the PWL decreases; also recorded: significantly attenuates the inflammation-induced decrease in PWL
development of secondary hyperalgesia (rat arthritis model; spinal microdialysis pre-treatment, 4 hours after induction of arthritis): secondary hyperalgesia did not develop
